We go through two compounds from patent publication US20150245596A1, “MELANOCORTIN RECEPTOR MUTANT MOUSE AND USES THEREOF” (THE GENERAL HOSPITAL CORPORATION, priority 2012, published 2015).

“Also recorded” adds a separate entry of the source.

For one test, the system named is redhead-BRaf^CA melanoma. Nature of the test: In vivo PLX4720 study, mouse chow containing PLX4720. The settings on record: 4 weeks of mouse chow containing 2% PLX4720 by weight, n=3.
The test system of test [1] is melanocytic markers (Mitf, Dct, Tyrp1 mRNA). Nature of the test: Quantitative RT-PCR of melanocytic markers in primary cultured tumor cells. In kind it is cell-based, mouse. The settings on record: 2 μM PLX4720, mRNA normalized to 18s rRNA and 0 h timepoint. The procedure:
RNA was harvested from primary cultured tumor cells treated for varying times with forskolin or PLX4720 using the RNeasy Plus mini kit (QIAGEN). mRNA expression of melanocytic markers was determined using intron-spanning mouse-specific primers with Kapa SYBR FAST qPCR master mix (KAPA BIOSYSTEMS). Expression was normalized to 18s rRNA and 0 hour time-points.

In test [2] the test system is primary cell line derived from one of the redhead (BRaf^V600E-Mc1r^e/e) melanomas. Conditions: redhead-derived melanoma cells.
Experimental: (§1) Tumor cells were digested overnight in 10 mg/ml collagenase and 1 mg/ml hyaluronidase. Initially tumor cells were grown in RPMI media with HEPES and 20% serum. Subsequently tumor cells were grown in DMEM media with 10% serum.
The test system is the same in test [3]. Nature of the test: cells. The settings on record: Mus musculus, 72 h, read-out: GI50, melanoma cell proliferation.
Experimental: as §1

Experimental for redhead-BRaf^CA melanoma: At 6-10 weeks of age the dorsal fur was trimmed using animal shears with a 0.25 mm head and the mice were treated topically with 20 mg/ml tamoxifen for 5 consecutive days. […] For in vivo PLX4720 studies, animals were given ad libitum mouse chow containing 2% PLX4720 by weight or control chow acquired from Plexxikon Inc. All studies and procedures involving animal subjects were approved by the Institutional Animal Care and Use Committees of Massachusetts General Hospital and Dana-Farber Harvard Cancer Center and were conducted strictly in accordance with the approved animal handling protocol.

Consider `CCCS(=O)(=O)Nc1ccc(F)c(C(=O)c2c[nH]c3ncc(Cl)cc23)c1F` [PLX4720], for which the “melanoma growth in vivo” value in the test with redhead-BRaf^CA melanoma is on record as “blocked tumor cell growth in vivo; also recorded: blocks melanoma growth in vivo”. In addition, the “expression of melanocytic markers” value in test [1] was “upregulates”. In addition, in test [2], the “melanoma cell proliferation in vitro” value is “prevented melanoma cell proliferation in vitro”. The GI50 in test [3] was 0.5 µM.
On to `N#CC(=C(/N)Sc1ccccc1N)/C(C#N)=C(\N)Sc1ccccc1N` [U0126], for which the “melanoma cell proliferation in vitro” value in test [2] is recorded as “prevented melanoma cell proliferation in vitro”. Further, the GI50 in test [3] is 2 µM.
